Series [1] concerns SK-N-SH cells. In words: SK-N-SH subcutaneous tumor model in mice: tumor volume and tumor growth inhibition. Type of series: in vivo, mouse. The conditions noted are these: for tumor inhibition rate: SK-N-SH subcutaneous tumor model; for Tumor volume, mean ± standard error: TMZ 20 mg/kg PO, irinotecan hydrochloride or PEG-irinotecan 30 mg/kg IV. The procedure:
SK-N-SH cells were cultured in an EMEM medium containing 10% heat-inactivated fetal bovine serum, 100 μg/mL penicillin, and 100 μg/mL streptomycin (incubator condition: 37° C., 5% CO 2). The cells were subcultured twice a week. The cells in the exponential phase were collected, and counted grafting.
2.2 Tumor grafting and grouping 100 μL of a mixture of EMEM and 50% matrigel containing 5×10^6 SK-N-SH cells was grafted subcutaneously at the right abdomen of a mouse, and the tumor growth was observed. 80 animals were randomized according to tumor volume (103 mm 3) by using the grouping randomization method in Excel. […] Each group had 10 tumor-bearing mice.
Tumor volume was measured twice a week using a vernier caliper.
(§1) The body weight and tumor volume were compared by using two-way ANOVA analysis. All data were analyzed using GraphPad Prism 5. p<0.05 indicates statistical significance.

Series [2] in a line: Body weight of tumor-bearing mice during treatment. Type of series: in vivo, mouse. The conditions noted are these: TMZ 20 mg/kg PO, irinotecan hydrochloride or PEG-irinotecan 30 mg/kg IV. The procedure: All procedures related to animal handling, care, and treatment in this study were performed according to the assessment of the Institutional Animal Care and Use Committee (IACUC) approved by Shanghai BioDuro Co., Ltd. (the CRO) and followed guidelines of the Association for Assessment and Accreditation of Laboratory Animal Care (AAALAC, accreditation number: 001516). In routine monitoring, the animals were examined that whether any adverse effects of tumor growth and/or treatment on normal behavior were present, such as motility, food and water consumption (by observation only), and body weight gain/loss (the body weight was measured twice a week during the pre-administration phase and daily during the administration phase), eye/hair matting and any other abnormalities.
as §1

Structures can show the parent of a compound that is named as a salt.

In the case of `CCc1c2c(nc3ccc(OC(=O)N4CCC(N5CCCCC5)CC4)cc13)-c1cc3c(c(=O)n1C2)COC(=O)[C@]3(O)CC` [Irinotecan hydrochloride], the “1 − T/C (tumor inhibition rate TGI)” value in series [1] (D 34) was 30.99%. For the same molecule, the “T/C (relative tumor proliferation rate)” value in series [1] (D 34) stood at 69.01%. The molecule also displayed a tumor inhibition rate in series [1] of 31.0%. Also, the “Animal body weight, mean ± standard error” value in series [2] (day 24) is listed as 22 ± 0.4 g; in series [2] (day 27), 21.8 ± 0.5 g; in series [2] (day 31), 23 ± 0.5 g; in series [2] (day 34), 24.3 ± 0.5 g; in series [2] (day 38) it was 23.2 ± 0.4 (n = 8) g; in series [2] (day 41) it was 21 (n = 1) g.

With `Cn1nnc2c(C(N)=O)ncn2c1=O` [Temozolomide], the “1 − T/C (tumor inhibition rate TGI)” value in series [1] (D 34) is recorded as 25.04%. This molecule had a tumor inhibition rate in series [1] of 25.0%. Further, the “TV (b: Tumor volume on day 34)” value in series [1] (Table 5, day 34) was determined as 1827.5 ± 262.2 mm^3. In addition, the “Tumor volume, mean ± standard error” value is 462.9 ± 67.1 mm^3 in series [1] (day 27); 1071 ± 144.9 mm^3 in series [1] (day 31); 1827.5 ± 262.2 (n = 9) mm^3 in series [1] (day 34); 2179.6 ± 209.6 (n = 5) mm^3 in series [1] (day 38); 3004.1 ± 100.8 (n = 2) mm^3 in series [1] (day 41). The “Animal body weight, mean ± standard error” value in series [2] (day 24) was 21.7 ± 0.4 g; in series [2] (day 27), 21.5 ± 0.5 g; in series [2] (day 31), 22 ± 0.6 g; in series [2] (day 34), 23.7 ± 0.7 (n = 9) g; in series [2] (day 38), 22.5 ± 0.5 (n = 5) g; in series [2] (day 41), 23.3 ± 1.1 (n = 2) g.
